Source: patent US20250151812A1, “METHOD AND INHALER FOR PROVIDING TWO OR MORE […] INHALATION” (Syqe Medical Ltd., priority 2018, published 2025)
“And” between values parts separate entries of the source, which are not always exact repeats. Equal values may be shown once.

Legend:
Format in all cases: physicochemical
[1] = Bediol strain Cannabis, two heating durations; aerosol analyzed using UPLC (Table 3, FIG. 17B); conditions: 180 C., 1.1 L/min; for mg API: in aerosol, 13.5 mg Bediol strain Cannabis; for total (acid + neutral form): sum for the acid and its neutral form, 13.5 mg Bediol
Procedure: In the following related experiment performed by the inventors, samples having 13.5 mg of Bediol strain Cannabis (Bedrocan, Holland) were tested using two operation profiles and compared to a raw material. The samples were heated to a temperature of 180° C. under an airflow rate of 1.1 liter/minute. In the first operation profile, the heating duration was 1.5 seconds; in the second operation profile, the heating duration was 2.5 seconds. Aerosol was collected, extracted and analyzed using UPLC. As can be observed from this example, under certain conditions, lengthening the heating duration increased the CBD/total THC ratio (from about 0.79 in the first operation profile to about 0.96 in the second operation profile). As can also be observed from this example, under certain conditions, lengthening the heating duration released higher amounts of all active substances tested (CBDA, CBD, THCA, Δ9-THC). (API-active pharmaceutical ingredient).

[2] = Various operation profiles (heating temperature, airflow rate, heating duration); aerosol analyzed in UPLC for THCA and Δ9-THC
Procedure: In another experiment performed by the inventors, various operation profiles were tested. In lines 1-9 of the table below, a change in the heating temperature was tested, while the rate of airflow and the heating duration remained constant. Aerosol was collected and extracted and analyzed in UPLC for the presence of THCA and Δ9-THC. A graph presenting the results obtained for the various heating temperatures is shown in FIG. 7 and further discussed below; in lines 10-14 of the table, a change in the rate of airflow was tested, while the temperature and the heating duration remained constant; in lines 17-19 of the table, a change in the heating duration was tested, while the temperature and rate of airflow remained constant. As can be observed, in this example, under certain conditions, increasing the heating temperature (while maintaining other parameters (flow rate, duration of heating) constant) reduced the percentage of THCA released; lengthening the heating duration (while maintaining other parameters constant) reduced the percentage of THCA released. (As shown below, the percentage of THCA was calculated as the amount of THCA divided by the total amount of both THCA and Δ9-THC.)
Reference is now made to FIG. 7 which is a graph showing the effect of the temperature on the relative amount of THCA vaporized. The experiment procedure and the results are also discussed above and presented in Table 2 Samples having 13.5 mg of a defined type of cannabis were tested by applying air at 1.1 liter/minute for 1.5 seconds at various temperatures from 160°° C. to 200° C. The relative amount of THCA were measured against the total amounts of Δ9-THC+THCA. […] Accordingly, by selecting the temperature and/or the time-temperature profile, the amount of THCA provided during inhalation may be controlled (e.g., selected by the user).

[3] = Effect of airflow rate on decarboxylation of THCA; aerosol from heated Bedrocan cannabis samples analyzed in UPLC; conditions: 13.5 mg Bedrocan sample, 185° C., 1620 ms
Procedure: In the following experiment performed by the inventors, the effect of airflow rate on decarboxylation of THCA was tested. 14 samples (7 samples tested in each of the profiles) of 13.5 mg each of Bedrocan strain (Bedrocan, Holland) were heated for 1620 ms to a temperature of 185° C. In a first operation profile (upper table), the rate of flow through the sample was set to 1.1 L/min; in a second operation profile (lower table), the rate of airflow through the sample was set to 0.85 L/min. Aerosol was collected and extracted and analyzed in UPLC (Ultra performance liquid chromatography) for the presence of THCA and Δ9-THC. As can be observed, in this example, under certain conditions, increasing the rate of flow through the sample increased the percentage of THCA in the aerosol. (As shown below, the percentage of THCA was calculated as the amount of THCA divided by the total amount of both THCA and Δ9-THC.) The graph of FIG. 17A presents the results shown in the table below.

[4] = FIG. 6: CBDA/CBD and THCA/Δ9-THC ratios at two operation profiles; aerosol analyzed using UPLC; conditions: 13.5 mg cannabis; 180° C., airflow 1 liter/minute; 1.5 seconds versus 2.5 second
Procedure: Reference is now made to FIG. 6, which is a bar chart of the ratios between CBDA/CBD and THCA/Δ9-THC received at various operation profiles according to some embodiments of the invention. Samples having 13.5 mg of a defined type of cannabis were tested at two operation profiles. The samples were heated to a temperature of 180° C. under an airflow of 1 liter/minute) for 1.5 seconds and 2.5 second. Aerosol was collected, extracted and analyzed using UPLC.

Structure (SMILES)	mg API ([1]; heating duration 1500 ms) [mg]	mg API ([1]; heating duration 2500 ms) [mg]	Δ9-THC ([2]; 13.5 mg cannabis, 1.1 L/min, 1500 ms, 160° C.)	Δ9-THC ([2]; 13.5 mg cannabis, 1.1 L/min, 1500 ms, 175° C.)	Δ9-THC ([2]; 13.5 mg cannabis, 1.1 L/min, 1500 ms, 200° C.)	Δ9-THC ([2]; 175 C., 1500 ms, flow 1.2 L/min)	Δ9-THC ([2]; 175 C., 1500 ms, flow 1.3 L/min)	Δ9-THC ([2]; 185° C., 1.1 L/min, heating 600 ms) [mg]	Δ9-THC ([2]; 185° C., 1.1 L/min, heating 800 ms) [mg]	Δ9-THC ([2]; 185° C., 1.1 L/min, heating 1000 ms) [mg]	Δ9-THC ([3]; flow rate 0.85 L/min)	Δ9-THC ([3]; flow rate 1.1 L/min)	total (acid + neutral form) ([1]; heating duration 1500 ms)	total (acid + neutral form) ([1]; heating duration 2500 ms)	amount of acids left after vaporization, by heating duration [4]
C=C(C)[C@@H]1CCC(C)=C[C@H]1c1c(O)cc(CCCCC)cc1O [CBD, Cannabidiol, reference compound]	0.201	0.477													
CCCCCc1cc(O)c2c(c1)OC(C)(C)[C@@H]1CCC(C)=C[C@@H]21 [Δ9-THC, Δ9-tetrahydrocannabinol, reference compound]	0.254	0.498	0.220 mg and 0.201 mg and 0.208 mg	0.475 mg and 0.461 mg and 0.478 mg	0.972 mg and 0.831 mg and 0.790 mg	0.467 mg and 0.423 mg	0.459 mg and 0.468 mg and 0.440 mg	0.093	0.315	0.620	0.521 mg and 0.559 mg and 0.529 mg and 0.486 mg and 0.434 mg and 0.357 mg and 0.365 mg	0.462 mg and 0.452 mg and 0.445 mg and 0.484 mg and 0.527 mg and 0.431 mg and 0.587 mg			
C=C(C)[C@@H]1CCC(C)=C[C@H]1c1c(O)cc(CCCCC)c(C(=O)O)c1O [CBDA, cannabidiolic acid]	0.125	0.188											0.311	0.642	the longer the operation profile the less amount of acids
